Reference: patent publication US10761087B2, “Choroidal neovascularization suppressor or drusen formation suppressor, and method for assessing or screening for same” (Link Genomics, Inc., priority 2015, dated 2020)
pIC50: −log10 of the molar value. “Also recorded” adds a separate entry of the source. Read-outs that look alike come from different tables or passages of the source.

Key:
[1] = tested on: RPE cells (ARPE-19); experiment: Focus (drusen-like structure) formation suppression in EMT induction model of RPE cells; type: cell-based, human; conditions: for Suppression of drusen-like structure formed in the RPE cell model: FIG. 35 to 39; for pIC50: Homo sapiens
Experimental: RPE cells (ARPE-19) were seeded on a plate, and incubated for 5 days at 37° C. […] As a control of EMT induction, a sample to which a compound to be assessed (test drug) is not added was used. After 48 hours from EMT induction, the cells were fixed by treating with a 4% paraformaldehyde solution for 30 minutes at room temperature, and then washed three times with PBS. The cells were treated with a 0.2% Triton-X/PBS solution for 5 minutes, and washed three times with PBS. […] The fluorescent-stained cells were imaged by using an Image Express Micro (available from Molecular Devices), and digitized by using a MetaXpress2.0 (available from Molecular Devices). By analyzing the degree of formation of Focus (Focus level) from the numerical data, a Focus formation suppressing rate was calculated according to the following Formula 1 on the basis of the numerical value at the time of no addition of a compound, and the EMT suppressive effect in each compound was verified. The degree of formation of Focus (Focus level) was determined according to the number and the volume of Focus as indexes.
IC50 in the table was calculated using the following Formula 2.
A: Higher concentration sandwiching 50%
B: Lower concentration sandwiching 50%
C: Inhibition rate at lower concentration sandwiching 50%
D: Inhibition rate at higher concentration sandwiching 50%
RPE cells (ARPE-19) were seeded on a plate, and incubated for 5 days at 37° C. […] As a control of EMT induction, a sample to which a compound to be assessed (test drug) is not added was used. The cells after observation were fixed by treating with a 4% paraformaldehyde solution for 30 minutes at room temperature, and then washed three times with PBS. The cells were treated with a 0.2% Triton-X/PBS solution for 5 minutes, and washed three times with PBS. […] The fluorescent-stained cells were imaged by using an Image Express Micro (available from Molecular Devices), and digitized by using a MetaXpress2.0 (available from Molecular Devices). By analyzing the degree of formation of Focus from the numerical data, a Focus formation suppressing rate was calculated on the basis of the case without addition of a compound and the case without EMT induction, and the EMT suppressive effect in each compound was verified. […] After washing three times with methanol, the cells were dried for 3 hours at room temperature. The dried cells were observed under a microscope.

[2] = tested on: EMT markers (mesenchymal markers, ECM) in RPE cells (ARPE-19); experiment: Change in expression of EMT markers (real-time PCR) in EMT-induced RPE cells; type: cell-based, human; conditions: for EMT suppression (FIG. 3 to FIG. 7) / Expression of EMT markers other than the ten common markers / Expression of Snail, Slug, CDH3, MMP1, MMP7, COL5A3, COL6A3, LAMC2, HMMR, TNC / Enhancement of expression of Fibronectin, Snail and vimentin (mesenchymal markers): EMT-induced ARPE-19, 48 hours; for EMT suppression (FIG. 3 to FIG. 7) / Expression of EMT markers other than the ten common markers / Expression of Snail, Slug, CDH3, MMP1, MMP7, COL5A3, COL6A3, LAMC2, HMMR, TNC: oxaprozin 300 μM, epalrestat 30 μM, zafirlukast 3 μM, amlexanox 30 μM, zaltoprofen 30 μM; for Enhancement of expression of Fibronectin, Snail and vimentin (mesenchymal markers): compound at Cmax, ½ of Cmax or ¼ of Cmax; for Expression of EMT markers at the time of EMT induction (FIG. 8 to FIG. 12): flufenamic acid aluminum 28 μM, mefenamic acid 39 μm, sulindac 100 μM, tiaprofenic acid 1000 μM, seratrodast 31 μM
Experimental: RPE cells (ARPE-19) were seeded on a plate, and incubated for 5 days at 37° C. For the RPE cells, EMT was induced in the conditions described in Test example 1-1, and respective compounds (oxaprozin, epalrestat, zafirlukast, amlexanox, zaltoprofen) were added simultaneously, and the cells were collected after 48 hours from induction of EMT. As a control, a sample to which a compound to be assessed (test drug) is not added was used. The collected cells were washed with PBS, and 350 μL of an RLT buffer was added to prepare a lysate for RNA extraction. The respective compounds were used in the following concentrations. Oxaprozin: 300 μM, epalrestat: 30 μM, zafirlukast: 3 μM, amlexanox: 30 μM, zaltoprofen: 30 μM. Total RNA was extracted from the lysate using an RNeasy Micro kit (QIAGEN, #74004), and from 2 μg of the obtained RNA, cDNA was prepared using a SuperScript III First-Strand Synthesis SuperMix for qRT-PCR (Invitrogen, #11752-250). Using 50 ng of the obtained cDNA as a template, a real-time PCR (ABI Prism 7500 Sequence Detection System) was conducted according to the manufacturer's protocol, and expression of mRNA of each gene was quantified. Specific primers for respective genes were purchased from Invitrogen. Ct (Threshold Cycle) value of each gene was calculated as a percentage to a non-treated sample after normalization by endogenous control.
Five compounds (flufenamic acid aluminum (addition concentration: 28 μM (Cmax)), mefenamic acid (addition concentration: 39 μm (Cmax)), sulindac (addition concentration: 100 μM), tiaprofenic acid (addition concentration: 1000 μM), and seratrodast (addition concentration: 31 μM (Cmax))) were assessed for change in expression of EMT markers in the same manner as in Test example 2-1. The results are shown in FIG. 8 to FIG. 12, respectively.
(§1) RPE cells (ARPE-19) were seeded on a plate, and incubated for 5 days at 37° C. […] Each compound was added in a concentration of Cmax, ½ of Cmax or ¼ of Cmax. As a control, a sample to which a compound to be assessed (test drug) is not added was used. The collected cells were washed with PBS, and 350 μL of an RLT buffer was added to prepare a lysate for RNA extraction. Total RNA was extracted from the lysate using an RNeasy Micro kit (QIAGEN, #74004), and from 2 μg of the obtained RNA, cDNA was prepared using a SuperScript III First-Strand Synthesis SuperMix for qRT-PCR (Invitrogen, #11752-250). Using 50 ng of the obtained cDNA as a template, a real-time PCR (ABI Prism 7500 Sequence Detection System) was conducted according to the manufacturer's protocol, and expression of mRNA of each gene was quantified. Specific primers for respective genes were purchased from Invitrogen. Ct (Threshold Cycle) value of each gene was calculated as a percentage to a non-treated sample after normalization by endogenous control. For each result, a significant test (Student t test) was conducted, and when p<0.05, the result was marked with “*”, and when p<0.01, the result was marked with “**”.
RPE cells (ARPE-19) were seeded on a plate, and incubated for 5 days at 37° C. For the RPE cells, EMT was induced in the conditions described in Test example 5-1, and the five representative compounds (oxaprozin, epalrestat, zafirlukast, amlexanox, zaltoprofen) were added simultaneously, and the cells were collected after 48 hours from induction of EMT. As a control, a sample to which a compound to be assessed (test drug) is not added was used. The collected cells were washed with PBS, and 350 μL of an RLT buffer was added to prepare a lysate for RNA extraction. Total RNA was extracted from the lysate using an RNeasy Micro kit (QIAGEN, # 74004), and from 2 μg of the obtained RNA, cDNA was prepared using a SuperScript III First-Strand Synthesis SuperMix for qRT-PCR (Invitrogen, # 11752-250). […]

[3] = cited from earlier work
[4] = tested on: VEGF; experiment: Change in expression of VEGF mRNA (real-time PCR) in EMT-induced RPE cells; type: cell-based, human; conditions: EMT-induced ARPE-19, 48 hours, compound at Cmax, ½ of Cmax or ¼ of Cmax
Experimental: as §1
The results are shown in FIG. 16 or FIG. 17, respectively.
The VEGF suppressive effect was assessed using the cell model as described above in the same manner as in Test example 2-3. The results are shown in FIG. 18 to FIG. 20, respectively.

[5] = Table 1, EMT-induced ARPE-19, compound added simultaneously, 48 hours, read-out: IC50 (Focus formation suppressing rate, EMT suppressive effect)
[6] = Test example 7, EMT-induced ARPE-19, 48 hours, read-out: IC50 values in the drusen-like structure suppressing tests
[7] = Pharmaceutical Interview Form, single-dose administration, read-out: Cmax
[8] = Table 3, from the interview form and the package insert of each drug, read-out: Cmax
[9] = quoted in Test examples 2-3, 2-4, 2-5, read-out: Cmax (as quoted in the VEGF test examples)
[10] = RPE, Table 2, same manner as Test example 6-1, read-out: IC50 (Focus formation suppressing rate, EMT suppressive effect)

SMILES | pIC50 [1, 5] | Cmax [3, 7] [µM] | Cmax [3, 9] [µM] | Enhancement of VEGF mRNA expression by EMT induction [4] | Enhancement of expression of Fibronectin, Snail and vimentin (mesenchymal markers) [2] | pIC50 [1, 10] | Expression of EMT markers at the time of EMT induction (FIG. 8 to FIG. 12) [2] | further results
CC(C)c1ccc2oc3nc(N)c(C(=O)O)cc3c(=O)c2c1 [Amlexanox, amlexanox] | 4.49 | 16 | – | – | – | – | – | Suppression of drusen-like structure formed in the RPE cell model ([1]; EMT-induced ARPE-19, 48 hours): suppresses a drusen-like structure formed in the RPE cell model in a concentration-dependent manner; pIC50 [1, 6]: 4.49; EMT suppression (FIG. 3 to FIG. 7) [2]: significantly suppress EMT; Expression of EMT markers other than the ten common markers [2]: decrease in expression was observed in ZEB2, CDH2, MMP3, COL1A1, and COL13A1; Expression of Snail, Slug, CDH3, MMP1, MMP7, COL5A3, COL6A3, LAMC2, HMMR, TNC [2]: suppressed expression; Cmax [3, 8]: 16 µM
CC(/C=C1\SC(=S)N(CC(=O)O)C1=O)=C\c1ccccc1 [Epalrestat, epalrestat] | 4.77 | 12.2 | 12.2 | – | – | – | – | pIC50 [1, 6]: 4.77; Cmax [3, 8]: 12.2 µM
CCc1cccc2c3c([nH]c12)C(CC)(CC(=O)O)OCC3 (centres unmarked) [Etodolac, etodolac] | – | – | 42.5 | did not suppress enhancement of VEGF expression | did not suppress enhancement of expression of these | – | – | –
CC(C(=O)O)c1ccc(-c2ccccc2)c(F)c1 (centres unmarked) [Flurbiprofen, flurbiprofen] | 4.49 | – | – | – | – | – | – | –
CC(C)Cc1ccc(C(C)C(=O)O)cc1 (centres unmarked) [Ibuprofen, ibuprofen] | 4.74 | – | – | – | – | – | – | –
Cc1cccc(Nc2ccccc2C(=O)O)c1C [Mefenamic acid, mefenamic acid] | – | 38.5 | 38.5 | suppressed enhancement of VEGF expression in a concentration dependent manner | suppressed enhancement of expression of these in a concentration dependent manner | 4.91 | significantly suppress expression of EMT markers at the time of EMT induction; also recorded: lower expression of EMT markers at the time of EMT induction | Enhancement of VEGF mRNA expression by EMT induction ([4]; listed as mefenamic acid): suppress enhancement of mRNA expression of VEGF
O=C(Nc1cccc2c(=O)cc(-c3nnn[nH]3)oc12)c1ccc(OCCCCc2ccccc2)cc1 [Pranlukast, pranlukast] | 5.96 | – | – | – | – | – | – | –
CC1=C(C)C(=O)C(C(CCCCCC(=O)O)c2ccccc2)=C(C)C1=O (centres unmarked) [Seratrodast, seratrodast] | – | 31 | 31 | – | – | 4.26 | – | –
CC1=C(CC(=O)O)c2cc(F)ccc2/C1=C\c1ccc([S+](C)[O-])cc1 (centres unmarked) [Sulindac, sulindac] | – | 10.1 | – | – | – | 4.45 | significantly suppress expression of EMT markers at the time of EMT induction; also recorded: lower expression of EMT markers at the time of EMT induction | –
CC(C(=O)O)c1ccc(C(=O)c2ccccc2)s1 (centres unmarked) [Tiaprofenic acid, tiaprofenic acid] | – | 69.2 | – | – | – | 3.43 | significantly suppress expression of EMT markers at the time of EMT induction; also recorded: lower expression of EMT markers at the time of EMT induction | –
COc1cc(C(=O)NS(=O)(=O)c2ccccc2C)ccc1Cc1cn(C)c2ccc(NC(=O)OC3CCCC3)cc12 [Zafirlukast, zafirlukast] | 5.42 | 0.8 | – | – | – | – | – | Suppression of drusen-like structure formed in the RPE cell model ([1]; EMT-induced ARPE-19, 48 hours): suppresses a drusen-like structure formed in the RPE cell model in a concentration-dependent manner; pIC50 [1, 6]: 5.42; EMT suppression (FIG. 3 to FIG. 7) [2]: significantly suppress EMT; Expression of EMT markers other than the ten common markers [2]: decrease in expression was observed in MMP3, COL13A1, LAMB3, or CSPG4; Expression of Snail, Slug, CDH3, MMP1, MMP7, COL5A3, COL6A3, LAMC2, HMMR, TNC [2]: suppressed expression; Cmax [3, 8]: 0.8 µM
O=C(O)c1ccccc1Nc1cccc(C(F)(F)F)c1 [flufenamic acid aluminum] | – | 27.9 | 27.9 | suppress enhancement of mRNA expression of VEGF | suppressed enhancement of expression of these in a concentration dependent manner | 5.36 | significantly suppress expression of EMT markers at the time of EMT induction; also recorded: lower expression of EMT markers at the time of EMT induction | Enhancement of VEGF mRNA expression by EMT induction ([4]; listed as Flufenamic acid aluminum): suppressed enhancement of VEGF expression in a concentration dependent manner
COc1ccc2c(c1)c(CC(=O)O)c(C)n2C(=O)c1ccc(Cl)cc1 [indomethacin] | – | – | 2.79 | did not suppress enhancement of VEGF expression | did not suppress enhancement of expression of these | – | – | –
